Data taken from ChEMBL document CHEMBL1143768, “Microwave prompted multigram synthesis, structural determination, and photo-antiproliferative activity of fluorinated 4-hydroxyquinolinones” (Bioorg Med Chem Lett, 2007).
Converted amounts (≈) assume the structure as drawn.

How the values were obtained:
[1] = system: Mycobacterium tuberculosis; test: Growth inhibition of Mycobacterium tuberculosis at 6.25 ug/ml; type: functional
[2] = system: HL-60; test: Cell cycle arrest in HL60 cell line irradiated with 2.5 J cm^-2 assessed as accumulation at G1 phase at 2.5 […] after 48 hrs; type: functional, Homo sapiens
[3] = system: HL-60; test: Cell cycle arrest in HL60 cell line irradiated with 2.5 J cm^-2 assessed as accumulation at G2 phase at 2.5 […] after 48 hrs; type: functional, Homo sapiens
[4] = system: HL-60; test: Photocytotoxicity against human HL60 cell line irradiated with 1.25 J cm^-2 after 72 hrs by MTT assay; type: functional; conditions: HL-60, light or radiation study
[5] = system: HL-60; test: Cell cycle arrest in HL60 cell line irradiated with 2.5 J cm^-2 assessed as accumulation at S phase at 5.0 […] after 24hrs; type: functional, Homo sapiens
[6] = system: HL-60; test: Cell cycle arrest in HL60 cell line irradiated with 2.5 J cm^-2 assessed as accumulation at G2 phase at 5.0 […] after 72 hrs; type: functional, Homo sapiens
[7] = system: HL-60; test: Cell cycle arrest in HL60 cell line irradiated with 2.5 J cm^-2 assessed as accumulation at G1 phase at 2.5 […] after 72 hrs; type: functional, Homo sapiens
[8] = system: HL-60; test: Cell cycle arrest in HL60 cell line irradiated with 2.5 J cm^-2 assessed as accumulation at G1 phase at 5.0 […] after 24hrs; type: functional, Homo sapiens
[9] = system: HL-60; test: Cell cycle arrest in HL60 cell line irradiated with 2.5 J cm^-2 assessed as accumulation at S phase at 5.0 […] after 72 hrs; type: functional, Homo sapiens
[10] = system: HL-60; test: Cell cycle arrest in HL60 cell line irradiated with 2.5 J cm^-2 assessed as accumulation at G1 phase at 2.5 […] after 24 hrs; type: functional, Homo sapiens
[11] = system: HL-60; test: Apoptotic activity in HL60 cells irradiated with 2.5 J cm^-2 at 2.5 […] after 24 hrs; type: functional, Homo sapiens
[12] = system: HL-60; test: Cell cycle arrest in HL60 cell line […] cm^-2 assessed as accumulation at G2 phase at 2.5 […] after 72 hrs; type: functional, Homo sapiens
[13] = system: HL-60; test: Apoptotic activity in HL60 cells irradiated with 2.5 J cm^-2 at 2.5 […] after 72 hrs; type: functional, Homo sapiens
[14] = system: HL-60; test: Cell cycle arrest in HL60 cell line irradiated with 2.5 J cm^-2 assessed as accumulation at S phase at 5.0 […] after 48 hrs; type: functional, Homo sapiens
[15] = system: HL-60; test: Cell cycle arrest in HL60 cell line irradiated with 2.5 J cm^-2 assessed as accumulation at G2 phase at 5.0 […] after 24hrs; type: functional, Homo sapiens
[16] = system: HL-60; test: Apoptotic activity in HL60 cells irradiated with 2.5 J cm^-2 at 5.0 […] after 72 hrs; type: functional, Homo sapiens
[17] = Photocytotoxicity against human NTCC 2544 cell line irradiated with 2.5 J cm^-2 after 72 hrs by MTT assay; type: cell-based; conditions: NTCC 2544 cells
[18] = system: HL-60; test: Cell cycle arrest in HL60 cell line irradiated with 2.5 J cm^-2 assessed as accumulation at G1 phase at 5.0 […] after 48 hrs; type: functional, Homo sapiens
[19] = system: HL-60; test: Apoptotic activity in HL60 cells irradiated with 2.5 J cm^-2 at 5.0 […] after 48 hrs; type: functional, Homo sapiens
[20] = Photocytotoxicity against human NTCC 2544 cell line irradiated with 1.25 J cm^-2 after 72 hrs by MTT assay; type: cell-based; conditions: NTCC 2544 cells
[21] = system: HL-60; test: Cell cycle arrest in HL60 cell line irradiated with 2.5 J cm^-2 assessed as accumulation at S phase at 2.5 […] after 48 hrs; type: functional, Homo sapiens
[22] = system: HL-60; test: Photocytotoxicity against human HL60 cell line irradiated with 2.5 J cm^-2 after 72 hrs by MTT assay; type: functional; conditions: HL-60, light or radiation study
[23] = system: HL-60; test: Apoptotic activity in HL60 cells irradiated with 2.5 J cm^-2 at 5.0 […] after 24 hrs; type: functional, Homo sapiens
[24] = system: HL-60; test: Cell cycle arrest in HL60 cell line irradiated with 2.5 J cm^-2 assessed as accumulation at S phase at 2.5 […] after 24 hrs; type: functional, Homo sapiens
[25] = system: HL-60; test: Cell cycle arrest in HL60 cell line irradiated with 2.5 J cm^-2 assessed as accumulation at G2 phase at 5.0 […] after 48 hrs; type: functional, Homo sapiens
[26] = system: HL-60; test: Cell cycle arrest in HL60 cell line irradiated with 2.5 J cm^-2 assessed as accumulation at G1 phase at 5.0 […] after 72 hrs; type: functional, Homo sapiens
[27] = system: HL-60; test: Cell cycle arrest in HL60 cell line irradiated with 2.5 J cm^-2 assessed as accumulation at G2 phase at 2.5 […] after 24 hrs; type: functional, Homo sapiens
[28] = system: HL-60; test: Apoptotic activity in HL60 cells irradiated with 2.5 J cm^-2 at 2.5 […] after 48 hrs; type: functional, Homo sapiens
[29] = system: LoVo; test: Photocytotoxicity against human LoVo cell line irradiated with 2.5 J cm^-2 after 72 hrs by MTT assay; type: functional; conditions: light or radiation study
[30] = system: HL-60; test: Cell cycle arrest in HL60 cell line irradiated with 2.5 J cm^-2 assessed as accumulation at S phase at 2.5 […] after 72 hrs; type: functional, Homo sapiens
[31] = system: Mycobacterium tuberculosis; test: Antimicrobial activity against Mycobacterium tuberculosis; type: functional
[32] = system: Trichophyton benhamiae; test: Antifungal activity against Trichophyton mentagrophytes 445(TM) by broth microdilution test; type: functional, Arthroderma benhamiae

## O=c1cc(O)c2ccccc2[nH]1
[1]
  inhibition at 6.25 µg/mL: 0%

## O=c1cc(O)c2cc(F)ccc2[nH]1
[2]
  Activity: 44.7%
[3]
  Activity: 10.3%
[4]
  GI50: > 10 µM
[5]
  Activity: 54.3%
[6]
  Activity: 6.9%
[7]
  Activity: 44.2%
[8]
  Activity: 34.6%
[9]
  Activity: 37.1%
[10]
  Activity: 30.8%
[11]
  Activity: 13.2%
[12]
  Activity: 12%
[13]
  Activity: 40.5%
[14]
  Activity: 38.6%
[15]
  Activity: 11.1%
[16]
  Activity: 46%
[17]
  GI50 at 72 h: > 20 µM
[18]
  Activity: 49.6%
[1]
  inhibition at 6.25 µg/mL: 35%
[19]
  Activity: 26%
[20]
  GI50 at 72 h: > 20 µM
[21]
  Activity: 45%
[22]
  GI50: 7.8 µM
[23]
  Activity: 21%
[24]
  Activity: 58.4%
[25]
  Activity: 11.7%
[26]
  Activity: 56%
[27]
  Activity: 10.8%
[28]
  Activity: 27%
[29]
  GI50: 12.1 µM
[30]
  Activity: 43.8%

## O=c1cc(O)c2cccc(C(F)(F)F)c2[nH]1
[4]
  GI50: > 10 µM
[17]
  GI50 at 72 h: 7.8 µM
[1]
  inhibition at 6.25 µg/mL: 69%
[20]
  GI50 at 72 h: > 20 µM
[22]
  GI50: 7.3 µM
[29]
  GI50: 10.1 µM

## O=c1cc(O)c2ccc(C(F)(F)F)cc2[nH]1
[4]
  GI50: 6.2 µM
[17]
  GI50 at 72 h: 2.5 µM
[1]
  inhibition at 6.25 µg/mL: 72%
[20]
  GI50 at 72 h: 7 µM
[31]
  Inhibition: 72%
[29]
  GI50: 1.8 µM

## Cc1ccc2c(O)cc(=O)[nH]c2c1
[4]
  GI50: > 10 µM
[1]
  inhibition at 6.25 µg/mL: 54%
[22]
  GI50: 10 µM

## O=c1cc(O)c2cccc(F)c2[nH]1
[4]
  GI50: > 10 µM
[1]
  inhibition at 6.25 µg/mL: 50%
[22]
  GI50: 10 µM

## O=c1cc(O)c2ccc(F)cc2[nH]1
[4]
  GI50: > 10 µM
[1]
  inhibition at 6.25 µg/mL: 52%
[22]
  GI50: 10 µM

## O=c1cc(O)c2ccc(Cl)cc2[nH]1
[1]
  inhibition at 6.25 µg/mL: 2%

## OC(Cn1cncn1)(Cn1cncn1)c1ccc(F)cc1F [FLUCONAZOLE]
[32]
  MIC: 1950 µM (≈ 597 µg/mL)

## NC(=O)c1cnccn1 [PYRAZINAMIDE]
[1]
  inhibition at 6.25 µg/mL: 100%
